Measured values as given in US10696693B2, “Fused imidazole derivatives as TGF-beta inhibitors” (Rigel Pharmaceuticals, Inc., priority 2014, dated 2020).
pIC50: −log10 of the molar value. Like-named read-outs stand apart in the source and are kept apart here.

Assays:
TGF-β = assay: AlphaScreen SureFire p-SMAD3 (Ser423/425) assay, TGF-β-stimulated cells; type: cell-based; settings: Mus musculus
Method in brief: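 The p-SMAD-3 (Ser423/425) SureFire assay measured phosphorylation of endogenous SMAD-3 in cell lysates. Cells were plated overnight in collagen-coated plates, exposed to three-fold serially diluted compounds for about 10 minutes, then stimulated with TGFβ. Lysates (5 μL) received acceptor bead mix for 2 hours, then donor beads for 1½ hours before AlphaScreen reading.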

GDF8 = assay: AlphaScreen SureFire p-SMAD3 (Ser423/425) assay, GDF8-stimulated cells; type: cell-based; settings: Mus musculus
Method in brief: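 Lysate (5 μL) went into 384-well shallow plates with 5 μL of Reaction Buffer, Activation Buffer and AlphaScreen Acceptor bead mix. Plates were sealed, kept dark and shaken for 2 hours at room temperature. Donor beads in dilution buffer (2 μL) were added for another 1½ hours, and p-SMAD3 signal was read on a Synergy-4 or Enspire reader.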

[1] = p-SMAD3 (Ser423/425) AlphaScreen in cell lysate, MPC-11, TGF-β stimulation, read-out: TGF-β: inhibition of TGF-β signaling, TGF-β pSMAD (MPC-11)
[2] = MPC-11, p-SMAD3 (Ser423/425) AlphaScreen in cell lysate, MPC11, GDF8 stimulation, read-out: GDF8: inhibition of GDF8 signaling, GDF pSMAD (MPC11)
[3] = MPC-11, read-out: TGF-β: inhibition of TGF-β signaling, TGF-β pSMAD (MPC-11), p-SMAD3 (Ser423/425) AlphaScreen in cell lysate, TGF-β stimulation
[4] = MPC-11, read-out: GDF8: inhibition of GDF8 signaling, GDF pSMAD (MPC11), p-SMAD3 (Ser423/425) AlphaScreen in cell lysate, GDF8 stimulation

Compound | pIC50 (TGF-β; [1]) | pIC50 (GDF8; [2]) | pIC50 (TGF-β; [3]) | pIC50 (GDF8; [4])
Fc1cc(-c2nc3n(c2-c2ccc4ncnn4c2)CCC3)cc(F)c1F [Compound 16, 6-(2-(3,4,5-trifluorophenyl)-6,7-dihydro-5H-pyrrolo[1,2-a]imidazol-3-yl)-[1,2,4]triazolo[1,5-a]pyridine] | < 6.00 | 6.00 to 7.00 |  | 
COc1c(C)cc(-c2nc3n(c2-c2ccc4ncccc4c2)CCC3)cc1C [Compound 259, 6-(2-(4-methoxy-3,5-dimethylphenyl)-6,7-dihydro-5H-pyrrolo[1,2-a]imidazol-3-yl)quinoline] | < 6.00 | < 6.00 |  | 
Fc1ccc(-c2nc3occn3c2-c2ccc3ncccc3c2)cc1 [Compound 146, 5-(quinolin-6-yl)-6-(4-fluorophenyl)imidazo[2,1-b]oxazole] | 6.00 to 7.00 | 6.00 to 7.00 |  | 
Fc1ccc(-c2nc3n(c2-c2ccc4cn[nH]c4c2)CCC3)cc1F [Compound 206, 6-(2-(3,4-difluorophenyl)-6,7-dihydro-5H-pyrrolo[1,2-a]imidazol-3-yl)-1H-indazole] | < 6.00 | 6.00 to 7.00 |  | 
Clc1cccc(-c2nc3n(c2-c2ccc4[nH]ncc4c2)CCC3)c1 [Compound 189, 5-(2-(3-chlorophenyl)-6,7-dihydro-5H-pyrrolo[1,2-a]imidazol-3-yl)-1H-indazole] |  |  | 6.00 to 7.00 | 7.00 to 7.30
Fc1ccc(-c2nc3n(c2-c2ccc4ncnn4c2)CCC3)c(F)c1Cl [Compound 81, 6-(2-(3-chloro-2,4-difluorophenyl)-6,7-dihydro-5H-pyrrolo[1,2-a]imidazol-3-yl)-[1,2,4]triazolo[1,5-a]pyridine] |  |  | 6.00 to 7.00 | 6.00 to 7.00
Cc1c(-c2nc3n(c2-c2ccc4ncccc4c2)CCC3)ccc(F)c1F [Compound 263, 6-(2-(3,4-difluoro-2-methylphenyl)-6,7-dihydro-5H-pyrrolo[1,2-a]imidzaol-3-yl)quinoline] | < 6.00 | 6.00 to 7.00 |  | 
Cc1ccc(F)cc1-c1nc2n(c1-c1ccc3[nH]ncc3c1)CCC2 [Compound 300, 5-(2-(5-fluoro-2-methylphenyl)-6,7-dihydro-5H-pyrrolo[1,2-a]imidazol-3-yl)-1H-indazole] |  |  | < 6.00 | < 6.00
Fc1cccc(F)c1-c1nc2n(c1-c1ccc3[nH]ncc3c1)CCC2 [Compound 212, 5-(2-(2,6-difluorophenyl)-6,7-dihydro-5H-pyrrolo[1,2-a]imidazol-3-yl)-1H-indazole] | < 6.00 | < 6.00 |  | 
